Assay results published in ChEMBL document CHEMBL1201862, “PubChem BioAssay data set” (2004).
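Assay format: 96-well plates, 48-hour exposure. GI50 = concentration required for 50% inhibition of growth.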 Activity calls are given as the source filed them. Cut-off read from the data, not from the text of the source: active = GI50 up to about 1.1 µM and inactive = higher.

Columns and labels:
Assay in all cases: NCI-60 cell line screen, 48 h
U-251 = test system: U-251
K562 = test system: K562
EKVX = test system: EKVX
786-0 = test system: 786-0
SK-MEL-5 = test system: SK-MEL-5
NCI/ADR-RES = test system: NCI/ADR-RES
HCC 2998 = test system: HCC 2998
T47D = test system: T47D
MDA-MB-435 = test system: MDA-MB-435
SF-268 = test system: SF-268
UACC-257 = test system: UACC-257
TK-10 = test system: TK-10
HT-29 = test system: HT-29
SK-MEL-28 = test system: SK-MEL-28
HCT-15 = test system: HCT-15
NCI-H226 = test system: NCI-H226
OVCAR-3 = test system: OVCAR-3
RPMI-8226 = test system: RPMI-8226
BT-549 = test system: BT-549

Compound	GI50 (U-251)	GI50 (K562)	GI50 (EKVX)	GI50 (786-0)	GI50 (SK-MEL-5)	GI50 (NCI/ADR-RES)	GI50 (HCC 2998)	GI50 (T47D)	GI50 (MDA-MB-435)	GI50 (SF-268)	GI50 (UACC-257)	GI50 (TK-10)	GI50 (HT-29)	GI50 (SK-MEL-28)	GI50 (HCT-15)	GI50 (NCI-H226)	GI50 (OVCAR-3)	GI50 (RPMI-8226)	GI50 (BT-549)
Cc1ccc2nc(CC(=O)c3ccc4ccccc4c3)c(O)nc2c1	> 100 µM (inactive)	> 100 µM (inactive)	> 100 µM (inactive)	> 100 µM (inactive)	> 100 µM (inactive)	> 100 µM (inactive)	> 100 µM (inactive)	> 100 µM (inactive)	> 100 µM (inactive)	> 100 µM (inactive)	> 100 µM (inactive)	> 100 µM (inactive)	66.2 µM (inactive)	> 100 µM (inactive)	> 100 µM	> 100 µM (inactive)	> 100 µM (inactive)	> 100 µM (inactive)	> 100 µM (inactive)
CCOC(=O)CSc1nc(-c2ccc(Cl)cc2)c(C#N)c(=O)[nH]1	> 100 µM (inactive)	36 µM (inactive)	> 100 µM (inactive)	> 100 µM (inactive)	> 100 µM (inactive)	> 100 µM (inactive)	76 µM (inactive)	85.1 µM (inactive)	> 100 µM (inactive)	> 100 µM (inactive)	> 100 µM (inactive)	> 100 µM (inactive)	> 100 µM (inactive)	> 100 µM (inactive)	> 100 µM	82.4 µM (inactive)	> 100 µM (inactive)	> 100 µM (inactive)	> 100 µM (inactive)
c1ccc2c(c1)Cn1c-2nc2ccccc21	> 100 µM (inactive)	> 100 µM (inactive)	> 100 µM (inactive)	> 100 µM (inactive)	42.4 µM (inactive)	> 100 µM (inactive)	> 100 µM (inactive)	> 100 µM (inactive)	> 100 µM (inactive)	> 100 µM (inactive)	> 100 µM (inactive)	> 100 µM (inactive)	> 100 µM (inactive)	> 100 µM (inactive)	94.4 µM	61.7 µM (inactive)	> 100 µM (inactive)	65 µM (inactive)	> 100 µM (inactive)
Clc1ccc2c(c1)N(CCCN1CCCC13CCCCC3)c1ccccc1S2	10.2 µM (inactive)	3.95 µM (inactive)	11.9 µM (inactive)	10.8 µM (inactive)	> 41.9 µM (inactive)	14.7 µM (inactive)	3.08 µM (inactive)	11.9 µM (inactive)	14.2 µM (inactive)	18.8 µM (inactive)	10.3 µM (inactive)	14.5 µM (inactive)	4.33 µM (inactive)	14.9 µM (inactive)	17.1 µM	35.3 µM (inactive)	14.1 µM (inactive)	2.79 µM (inactive)	14.9 µM (inactive)
CCCCCc1c(CCCC)c(=O)[nH]c2cc(CNCC(OC)OC)ccc12	10.8 µM (inactive)	1.9 µM (inactive)	16.2 µM (inactive)	4.47 µM (inactive)	8.77 µM (inactive)	12.4 µM (inactive)	3.24 µM (inactive)	15.5 µM (inactive)	11.4 µM (inactive)	16.7 µM (inactive)	4.92 µM (inactive)	15 µM (inactive)	3.91 µM (inactive)	5.71 µM (inactive)	9.53 µM	20.6 µM (inactive)	17.3 µM (inactive)	4.08 µM (inactive)	14.8 µM (inactive)
CC/C(Cl)=N\OC(=O)Nc1ccc(C#N)cc1	17.1 µM (inactive)	1.86 µM (inactive)	13.3 µM (inactive)	11.2 µM (inactive)	12.9 µM (inactive)	13.3 µM (inactive)	16.4 µM (inactive)	10.8 µM (inactive)	15.6 µM (inactive)	18.1 µM (inactive)	16.1 µM (inactive)	16.4 µM (inactive)	18.6 µM (inactive)	18 µM (inactive)	7.93 µM	16.6 µM (inactive)	18.5 µM (inactive)	2.28 µM (inactive)	15.1 µM (inactive)
C/N=c1/oc2ccccc2cc1C(N)=O	> 100 µM (inactive)	> 100 µM (inactive)	30.8 µM (inactive)	> 100 µM (inactive)	> 100 µM (inactive)	> 100 µM (inactive)	> 100 µM (inactive)	> 100 µM (inactive)	> 100 µM (inactive)	> 100 µM (inactive)	> 100 µM (inactive)	> 100 µM (inactive)	> 100 µM (inactive)	> 100 µM (inactive)	> 100 µM	> 100 µM (inactive)	> 100 µM (inactive)	> 100 µM (inactive)	> 100 µM (inactive)
C=C1C(=O)O[C@@H]2C[C@]3(C)CC[C@]4(C)[C@H](CC[C@@H]5[C@@]6(C)CCC(=O)C(C)(C)[C@@H]6CC[C@]54C)[C@H]3[C@H]12 [OCHRACEOLIDE A]	19 µM (inactive)	4.45 µM (inactive)	19 µM (inactive)	13.7 µM (inactive)	12.5 µM (inactive)	22.2 µM (inactive)	19.2 µM (inactive)	10.6 µM (inactive)	11.2 µM (inactive)	22.2 µM (inactive)	14.6 µM (inactive)	16 µM (inactive)	20.6 µM (inactive)	18.9 µM (inactive)	12.5 µM	20 µM (inactive)	17.3 µM (inactive)	2.1 µM (inactive)	16.1 µM (inactive)
N#CC1=C(N)OC(c2ccc([N+](=O)[O-])cc2)C1(C#N)C#N (stereo not given)	25.4 µM (inactive)	37.8 µM (inactive)	14.2 µM (inactive)	9.66 µM (inactive)	9.48 µM (inactive)	19.6 µM (inactive)	9.46 µM (inactive)	18.4 µM (inactive)	17 µM (inactive)	23.3 µM (inactive)	13.1 µM (inactive)	13.2 µM (inactive)	9.14 µM (inactive)	9.4 µM (inactive)	10.5 µM	18.3 µM (inactive)	> 10 µM (inactive)	7.78 µM (inactive)	17.1 µM (inactive)
O=C(CCl)Nc1cc(Cl)c(Cl)cc1Cl	2.01 µM (inactive)	3.66 µM (inactive)	2.54 µM (inactive)	1.51 µM (inactive)	1.78 µM (inactive)	2.05 µM (inactive)	4.84 µM (inactive)	2.29 µM (inactive)	1.38 µM (inactive)	2.3 µM (inactive)	1.84 µM (inactive)	1.83 µM (inactive)	2 µM (inactive)	2.32 µM (inactive)	2.09 µM	1.01 µM (active)	1.76 µM (inactive)	4.74 µM (inactive)	1.77 µM (inactive)
O=C1C(Cl)=C(N(C(=O)c2ccccc2)C(=O)c2ccccc2)C(=O)c2ccccc21	5.98 µM (inactive)	3.4 µM (inactive)	5.74 µM (inactive)	14.5 µM (inactive)	3.6 µM (inactive)	29.2 µM (inactive)	12.1 µM (inactive)	4.68 µM (inactive)	12.6 µM (inactive)	2.48 µM (inactive)	14.9 µM (inactive)	21.2 µM (inactive)	24.7 µM (inactive)	14.9 µM (inactive)	2.94 µM	> 100 µM (inactive)	10.9 µM (inactive)	2.05 µM (inactive)	9.04 µM (inactive)
c1ccc(C(=NNc2nc3ccccc3[nH]2)c2ccccn2)nc1	0.171 µM (active)	0.172 µM (active)	0.929 µM (active)	0.123 µM (active)	0.159 µM (active)	0.115 µM (active)	15 µM (inactive)	0.0131 µM (active)	0.348 µM (active)	0.13 µM (active)	0.145 µM (active)	0.121 µM (active)	0.0221 µM (active)	0.185 µM (active)	0.115 µM	0.0625 µM (active)	0.0393 µM (active)	0.129 µM (active)	0.48 µM (active)
CSc1c(C#N)c(=O)[nH]c2[nH]nc(C)c12	> 100 µM (inactive)	> 100 µM (inactive)	> 100 µM (inactive)	> 100 µM (inactive)	> 100 µM (inactive)	> 100 µM (inactive)	> 100 µM (inactive)	> 100 µM (inactive)	> 100 µM (inactive)	> 100 µM (inactive)	> 100 µM (inactive)	> 100 µM (inactive)	> 100 µM (inactive)	> 100 µM (inactive)	> 100 µM	> 100 µM (inactive)	> 100 µM (inactive)	> 100 µM (inactive)	> 100 µM (inactive)
O=C(O)c1ccccc1CC1Cc2ccccc2C1	> 100 µM (inactive)	> 100 µM (inactive)	> 100 µM (inactive)	> 100 µM (inactive)	> 100 µM (inactive)	> 100 µM (inactive)	> 100 µM (inactive)	> 100 µM (inactive)	> 100 µM (inactive)	> 100 µM (inactive)	> 100 µM (inactive)	> 100 µM (inactive)	> 100 µM (inactive)	> 100 µM (inactive)	> 100 µM	> 100 µM (inactive)	> 100 µM (inactive)	> 100 µM (inactive)	> 100 µM (inactive)
O=C1CC(Cl)c2c1csc2Br (stereo not given)	16.7 µM (inactive)	17.6 µM (inactive)	20.3 µM (inactive)	7.91 µM (inactive)	16.9 µM (inactive)	20.9 µM (inactive)	17.4 µM (inactive)	23.1 µM (inactive)	15.1 µM (inactive)	16.8 µM (inactive)	16.3 µM (inactive)	16 µM (inactive)	21.7 µM (inactive)	17.8 µM (inactive)	12.9 µM	29.9 µM (inactive)	16.3 µM (inactive)	1.03 µM (active)	19.9 µM (inactive)
